Blank lines part the entries; values can stand above or below the molecule they belong to.
Tests used:
[1] = target: T1, WT-IDH1 (C269) (Homo sapiens, UniProt O75874); experiment: Blockade of IA-rhodamine labeling of WT-IDH1; assay type: binding; conditions: 2 μM protein in MDA-MB-231 lysate
T1 construct: Full length cDNAs encoding for IDH1 (Open Biosystems, Clone ID: 3880331) and IMPDH2; His6 (C); made in house; host or cells: E. coli BL21(DE3)

[2] = target: ACO2 C385 (Q99798) (Homo sapiens, UniProt Q99798); experiment: Competitive isoTOP-ABPP in situ; assay type: cell-based; conditions: MDA-MB-231 cells
[3] = target: CYR61 C70 (O00622) (Homo sapiens, UniProt O00622); experiment: Competitive isoTOP-ABPP, cell lysates; assay type: binding
Sequence of CYR61 C70 (O00622) (O00622 25-381): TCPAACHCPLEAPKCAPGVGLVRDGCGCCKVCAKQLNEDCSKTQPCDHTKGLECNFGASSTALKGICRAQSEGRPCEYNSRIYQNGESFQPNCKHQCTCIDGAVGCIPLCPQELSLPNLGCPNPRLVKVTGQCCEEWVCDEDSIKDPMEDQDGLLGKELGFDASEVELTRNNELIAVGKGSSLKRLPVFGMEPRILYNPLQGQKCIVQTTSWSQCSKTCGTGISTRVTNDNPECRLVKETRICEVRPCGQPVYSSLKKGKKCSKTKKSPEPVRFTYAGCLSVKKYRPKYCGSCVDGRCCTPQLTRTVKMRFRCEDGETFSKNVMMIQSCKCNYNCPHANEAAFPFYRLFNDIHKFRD

[4] = target: T2, PRMT1 (C109) (Homo sapiens, UniProt Q99873); experiment: Blockade of IA-rhodamine labeling of recombinant PRMT1 (gel-based ABPP); assay type: binding
T2 construct: Full length PRMT1 subcloned into pET45b (+) (Novagen) was previously generated by the Cravatt lab; inferred from Ni-NTA purification and the pET45b vector; made in house; host or cells: E. coli BL21(DE3)
T2 sequence (Q99873 11-371 limits assumed): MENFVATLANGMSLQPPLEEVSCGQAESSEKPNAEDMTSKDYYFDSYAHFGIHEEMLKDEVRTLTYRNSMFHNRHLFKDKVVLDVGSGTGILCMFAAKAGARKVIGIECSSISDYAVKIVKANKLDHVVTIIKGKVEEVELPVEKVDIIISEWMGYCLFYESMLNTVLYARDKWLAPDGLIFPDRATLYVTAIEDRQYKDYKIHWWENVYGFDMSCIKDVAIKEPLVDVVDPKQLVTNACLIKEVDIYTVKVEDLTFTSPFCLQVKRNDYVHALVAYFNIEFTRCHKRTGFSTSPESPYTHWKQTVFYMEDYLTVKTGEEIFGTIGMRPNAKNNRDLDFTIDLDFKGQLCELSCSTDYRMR

[5] = target: T3, cysteines in MDA-MB-231 and Ramos cells (Homo sapiens, UniProt P10398); experiment: Competitive isoTOP-ABPP in situ (fragment-treated cells); assay type: cell-based; conditions: 200 μM, insitu
T3 sequence (P10398 1-606): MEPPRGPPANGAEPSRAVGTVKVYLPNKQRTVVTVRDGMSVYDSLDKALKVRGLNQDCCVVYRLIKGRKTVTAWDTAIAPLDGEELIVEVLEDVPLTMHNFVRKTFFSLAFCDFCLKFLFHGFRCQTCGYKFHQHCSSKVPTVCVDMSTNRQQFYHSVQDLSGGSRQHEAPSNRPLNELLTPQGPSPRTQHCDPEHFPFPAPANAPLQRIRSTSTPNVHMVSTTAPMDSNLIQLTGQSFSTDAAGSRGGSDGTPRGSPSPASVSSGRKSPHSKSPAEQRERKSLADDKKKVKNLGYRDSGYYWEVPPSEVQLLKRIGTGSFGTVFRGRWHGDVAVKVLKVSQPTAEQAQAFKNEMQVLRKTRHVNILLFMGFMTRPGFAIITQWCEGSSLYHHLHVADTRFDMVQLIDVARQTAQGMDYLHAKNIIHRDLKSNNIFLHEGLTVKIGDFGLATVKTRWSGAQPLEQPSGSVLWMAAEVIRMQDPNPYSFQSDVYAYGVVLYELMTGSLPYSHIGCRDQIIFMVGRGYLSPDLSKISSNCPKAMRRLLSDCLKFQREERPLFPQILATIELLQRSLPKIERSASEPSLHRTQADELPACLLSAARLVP

[6] = target: cysteines in MDA-MB-231 and Ramos cells (Homo sapiens, UniProt Q15796); experiment: as above; assay type: cell-based; conditions: 200 μM, insitu
Sequence of cysteines in MDA-MB-231 and Ramos cells (Homo sapiens, UniProt Q15796) (Q15796 whole entry): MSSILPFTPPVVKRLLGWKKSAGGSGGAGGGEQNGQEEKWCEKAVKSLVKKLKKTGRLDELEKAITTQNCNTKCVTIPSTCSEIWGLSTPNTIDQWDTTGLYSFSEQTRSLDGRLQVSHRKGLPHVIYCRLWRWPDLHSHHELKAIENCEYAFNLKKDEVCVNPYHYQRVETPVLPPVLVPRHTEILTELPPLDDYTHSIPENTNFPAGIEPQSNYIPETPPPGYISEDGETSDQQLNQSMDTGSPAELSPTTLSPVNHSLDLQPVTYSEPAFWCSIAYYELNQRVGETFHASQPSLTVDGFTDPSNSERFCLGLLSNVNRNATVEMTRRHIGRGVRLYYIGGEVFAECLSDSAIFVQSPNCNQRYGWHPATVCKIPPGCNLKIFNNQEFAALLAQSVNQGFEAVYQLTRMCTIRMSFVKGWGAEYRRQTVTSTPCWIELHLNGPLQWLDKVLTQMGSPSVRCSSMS

[7] = target: cysteines in MDA-MB-231 and Ramos cells (Homo sapiens, UniProt P16455); experiment: as above; assay type: cell-based; conditions: 200 μM, insitu, ramos
Sequence of cysteines in MDA-MB-231 and Ramos cells (Homo sapiens, UniProt P16455) (P16455 whole entry): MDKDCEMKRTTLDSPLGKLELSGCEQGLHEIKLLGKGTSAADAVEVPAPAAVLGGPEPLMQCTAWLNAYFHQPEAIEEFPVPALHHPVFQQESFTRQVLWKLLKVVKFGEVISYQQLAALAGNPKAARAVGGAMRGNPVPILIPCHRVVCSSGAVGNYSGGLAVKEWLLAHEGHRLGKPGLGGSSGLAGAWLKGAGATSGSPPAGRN

[8] = target: cysteines in MDA-MB-231 and Ramos cells (Homo sapiens, UniProt Q9ULA0); experiment: as above; assay type: cell-based; conditions: 200 μM, insitu
[9] = target: cysteines in MDA-MB-231 and Ramos cells (Homo sapiens, UniProt P46013); experiment: as above; assay type: cell-based; conditions: 200 μM, insitu
Sequence of cysteines in MDA-MB-231 and Ramos cells (Homo sapiens, UniProt P46013) (P46013 whole entry): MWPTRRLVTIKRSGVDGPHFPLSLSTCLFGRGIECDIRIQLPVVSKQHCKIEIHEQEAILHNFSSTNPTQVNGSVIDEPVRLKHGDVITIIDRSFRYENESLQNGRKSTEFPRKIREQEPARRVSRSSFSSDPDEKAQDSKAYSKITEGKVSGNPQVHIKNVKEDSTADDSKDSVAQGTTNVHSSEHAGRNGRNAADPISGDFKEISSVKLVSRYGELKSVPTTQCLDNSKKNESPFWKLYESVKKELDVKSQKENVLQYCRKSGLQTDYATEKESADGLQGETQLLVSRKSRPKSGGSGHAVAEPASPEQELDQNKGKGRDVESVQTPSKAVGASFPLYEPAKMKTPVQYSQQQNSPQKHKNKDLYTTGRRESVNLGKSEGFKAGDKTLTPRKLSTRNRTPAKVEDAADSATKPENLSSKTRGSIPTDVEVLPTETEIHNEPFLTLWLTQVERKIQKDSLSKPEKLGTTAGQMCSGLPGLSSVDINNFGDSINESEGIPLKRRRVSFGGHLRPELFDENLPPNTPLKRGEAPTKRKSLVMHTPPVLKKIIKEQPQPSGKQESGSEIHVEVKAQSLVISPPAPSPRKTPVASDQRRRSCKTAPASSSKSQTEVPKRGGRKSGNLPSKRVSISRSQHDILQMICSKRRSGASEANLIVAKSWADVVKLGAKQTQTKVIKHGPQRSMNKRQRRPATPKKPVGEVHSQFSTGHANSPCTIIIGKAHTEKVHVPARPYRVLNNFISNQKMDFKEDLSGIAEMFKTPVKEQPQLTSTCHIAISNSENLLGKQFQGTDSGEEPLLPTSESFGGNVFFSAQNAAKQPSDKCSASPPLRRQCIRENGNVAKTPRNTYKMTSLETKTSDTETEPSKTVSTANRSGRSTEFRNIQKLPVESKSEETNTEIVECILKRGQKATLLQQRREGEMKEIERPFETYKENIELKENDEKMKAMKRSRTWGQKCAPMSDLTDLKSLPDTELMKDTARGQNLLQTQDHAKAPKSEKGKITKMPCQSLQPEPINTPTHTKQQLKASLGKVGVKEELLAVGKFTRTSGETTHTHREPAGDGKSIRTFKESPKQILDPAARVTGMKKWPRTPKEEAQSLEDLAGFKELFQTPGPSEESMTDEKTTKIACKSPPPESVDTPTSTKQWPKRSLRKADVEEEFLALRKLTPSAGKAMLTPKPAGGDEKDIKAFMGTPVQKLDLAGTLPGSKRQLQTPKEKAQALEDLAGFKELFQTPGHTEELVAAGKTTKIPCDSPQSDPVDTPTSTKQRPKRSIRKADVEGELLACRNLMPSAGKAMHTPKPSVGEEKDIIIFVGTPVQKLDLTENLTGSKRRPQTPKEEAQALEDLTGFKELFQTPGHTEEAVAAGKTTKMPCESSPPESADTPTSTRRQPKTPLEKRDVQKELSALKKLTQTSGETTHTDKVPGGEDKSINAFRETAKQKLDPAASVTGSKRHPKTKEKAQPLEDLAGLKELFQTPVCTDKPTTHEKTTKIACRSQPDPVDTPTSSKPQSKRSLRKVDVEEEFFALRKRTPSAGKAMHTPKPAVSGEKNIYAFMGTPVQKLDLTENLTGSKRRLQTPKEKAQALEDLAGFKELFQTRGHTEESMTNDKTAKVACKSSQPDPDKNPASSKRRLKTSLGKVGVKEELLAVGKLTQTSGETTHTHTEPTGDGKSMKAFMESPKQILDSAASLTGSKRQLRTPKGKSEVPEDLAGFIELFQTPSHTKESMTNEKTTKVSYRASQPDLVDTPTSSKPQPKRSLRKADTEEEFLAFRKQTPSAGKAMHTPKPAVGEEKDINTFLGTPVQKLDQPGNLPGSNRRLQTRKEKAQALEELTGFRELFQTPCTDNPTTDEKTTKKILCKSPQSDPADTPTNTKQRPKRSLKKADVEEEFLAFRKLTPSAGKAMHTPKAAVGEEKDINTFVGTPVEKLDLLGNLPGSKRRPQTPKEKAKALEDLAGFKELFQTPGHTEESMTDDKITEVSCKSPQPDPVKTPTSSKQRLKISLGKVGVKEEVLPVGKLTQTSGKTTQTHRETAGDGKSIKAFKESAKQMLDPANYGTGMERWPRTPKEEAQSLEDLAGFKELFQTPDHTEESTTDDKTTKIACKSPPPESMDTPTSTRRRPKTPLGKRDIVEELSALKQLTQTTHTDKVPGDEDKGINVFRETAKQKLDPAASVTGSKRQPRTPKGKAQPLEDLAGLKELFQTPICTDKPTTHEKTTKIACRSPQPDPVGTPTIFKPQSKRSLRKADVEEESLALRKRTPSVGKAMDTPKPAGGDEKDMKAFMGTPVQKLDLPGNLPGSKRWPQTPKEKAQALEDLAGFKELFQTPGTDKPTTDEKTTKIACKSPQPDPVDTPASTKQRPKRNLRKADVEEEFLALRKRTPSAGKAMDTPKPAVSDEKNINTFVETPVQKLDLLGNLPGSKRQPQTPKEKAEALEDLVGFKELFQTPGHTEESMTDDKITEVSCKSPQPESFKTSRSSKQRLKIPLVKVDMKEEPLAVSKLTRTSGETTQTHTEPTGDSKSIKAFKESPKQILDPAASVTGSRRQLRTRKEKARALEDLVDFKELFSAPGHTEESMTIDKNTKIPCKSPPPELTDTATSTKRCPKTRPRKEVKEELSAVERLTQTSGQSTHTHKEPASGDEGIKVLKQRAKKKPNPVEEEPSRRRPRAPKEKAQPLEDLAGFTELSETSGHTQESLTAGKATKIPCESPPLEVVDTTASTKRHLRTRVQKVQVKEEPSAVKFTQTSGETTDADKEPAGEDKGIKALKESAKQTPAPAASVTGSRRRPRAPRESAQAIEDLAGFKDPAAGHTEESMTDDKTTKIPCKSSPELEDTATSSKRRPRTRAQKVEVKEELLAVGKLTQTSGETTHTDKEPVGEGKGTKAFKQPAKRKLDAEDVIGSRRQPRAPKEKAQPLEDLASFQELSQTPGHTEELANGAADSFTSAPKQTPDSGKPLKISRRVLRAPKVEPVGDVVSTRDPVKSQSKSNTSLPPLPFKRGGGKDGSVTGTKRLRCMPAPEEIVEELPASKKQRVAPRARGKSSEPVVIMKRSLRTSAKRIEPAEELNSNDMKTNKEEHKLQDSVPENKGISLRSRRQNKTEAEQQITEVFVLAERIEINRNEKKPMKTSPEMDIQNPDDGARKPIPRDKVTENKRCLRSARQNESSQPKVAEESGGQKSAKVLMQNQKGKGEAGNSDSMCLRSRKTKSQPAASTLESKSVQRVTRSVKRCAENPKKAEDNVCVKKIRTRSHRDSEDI

[10] = target: T4, cysteines in MDA-MB-231 and Ramos cells (Homo sapiens, UniProt Q9BR61); experiment: as above; assay type: cell-based; conditions: 200 μM, insitu
T4 sequence (Q9BR61 1-282): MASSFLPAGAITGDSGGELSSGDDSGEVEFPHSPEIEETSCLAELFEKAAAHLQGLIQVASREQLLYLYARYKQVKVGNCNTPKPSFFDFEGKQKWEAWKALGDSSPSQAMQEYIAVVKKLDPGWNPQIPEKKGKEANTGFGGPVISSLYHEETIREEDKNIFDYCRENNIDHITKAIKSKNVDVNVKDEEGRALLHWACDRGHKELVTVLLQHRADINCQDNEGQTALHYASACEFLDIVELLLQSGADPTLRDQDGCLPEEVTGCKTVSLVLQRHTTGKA

[11] = target: cysteines in MDA-MB-231 and Ramos cells (Homo sapiens, UniProt Q13232); experiment: as above; assay type: cell-based; conditions: 200 μM, insitu

T1 sequence (O75874 whole entry): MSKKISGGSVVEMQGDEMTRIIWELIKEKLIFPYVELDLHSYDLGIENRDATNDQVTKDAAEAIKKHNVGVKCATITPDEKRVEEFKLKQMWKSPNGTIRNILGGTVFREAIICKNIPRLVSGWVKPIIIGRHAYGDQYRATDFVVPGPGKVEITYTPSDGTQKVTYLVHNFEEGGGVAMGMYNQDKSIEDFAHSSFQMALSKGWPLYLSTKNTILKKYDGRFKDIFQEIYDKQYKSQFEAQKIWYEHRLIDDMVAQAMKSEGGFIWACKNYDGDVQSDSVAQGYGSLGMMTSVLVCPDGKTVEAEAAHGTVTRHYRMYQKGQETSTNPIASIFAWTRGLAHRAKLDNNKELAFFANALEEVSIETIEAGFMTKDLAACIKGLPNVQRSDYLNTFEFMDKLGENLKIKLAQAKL

IC50 [1]: > 50000 nM | isoTOP-ABPP reactivity profile (ratio) 2_200 μM_in-situ_231 ([2]; fragment 2 at 200 μM): 20.0
SMILES: COc1ccc2c(c1)CCCN2C(=O)CCl [compound 2]

blockade of IA-rhodamine labeling of PRMT1 (in words) ([4]; recombinant WT-PRMT1 in cell lysate): inactive | R value (DMSO/fragment) ([3]; 500 μM, in vitro, MDA-MB-231): 20.0
SMILES: O=C(CCl)Nc1cc(C(F)(F)F)cc(C(F)(F)F)c1 [compound 3]

isoTOP-ABPP ratio, cysteine P10398_C597 [5]; 231: 1.4 | isoTOP-ABPP ratio, cysteine P16455_C145 [7]: 20.0 | isoTOP-ABPP ratio, cysteine Q9ULA0_C144 [8]; 231: 5.2
SMILES: O=C(CCl)N1CCN(S(=O)(=O)c2ccccc2F)CC1 [compound 10]

isoTOP-ABPP ratio P46013_C903 [9]; 231: 1.0 | isoTOP-ABPP ratio Q9BR61_C267 [10]; 231: 0.5 | isoTOP-ABPP ratio Q9ULA0_C144 [8]; 231: 0.8
SMILES: Cc1ccc(C=C(C#N)C(=O)NCCN2CCOCC2)cc1 [compound 41]

IC50 ([4]; recombinant WT-PRMT1 1 μM in cell lysate, fragment 1 h): 36 µM
SMILES: Cn1cc(S(=O)(=O)N2CCOCC2)cc1C(=O)NC(=O)CCl [compound 11]

isoTOP-ABPP ratio P46013_C903 [9]; 231: 20.0 | isoTOP-ABPP ratio Q13232_C158 [11]; 231: 8.8
SMILES: CC1CCc2ccccc2N1C(=O)CCl (stereo not drawn) [compound 45]

isoTOP-ABPP ratio P46013_C903 [9]; 231: 1.1
SMILES: C=CC(=O)Nc1cc(F)c(N2CCN(C(=O)OC(C)(C)C)CC2)c(F)c1 [compound 38]

isoTOP-ABPP reactivity Q9ULA0_C144 DNPEP [8]; 231: 2.1
SMILES: O=C(CCl)N1CCC(Cc2ccccc2)CC1 [compound 9]

isoTOP-ABPP ratio P10398_C597 ([5]; ramos): 1.2 | isoTOP-ABPP ratio P46013_C903 ([9]; ramos): 1.6 | isoTOP-ABPP ratio Q13232_C158 ([11]; ramos): 1.5 | isoTOP-ABPP ratio Q15796_C81 ([6]; ramos): 1.3 | isoTOP-ABPP ratio Q9BR61_C267 ([10]; ramos): 2.5 | isoTOP-ABPP ratio Q9ULA0_C144 ([8]; ramos): 1.3
SMILES: O=C(CCl)N1CCN(CC(=O)N2CCOCC2)CC1 [compound 29]

The remaining lines, values behind:

SMILES: CC(C)CCOCCNC(=O)CCl [compound 27]
isoTOP-ABPP ratio (reactivity profile), O00622_C70 ([3]; 500 μm in-vitro ramos_231): 1.1

SMILES: O=C(CCl)NC12CC3CC(CC(C3)C1)C2 [compound 21]
isoTOP-ABPP ratio, cysteine P10398_C597 [5]; 231: 0.7 | isoTOP-ABPP ratio, cysteine Q15796_C81 [6]; 231: 1.3

SMILES: O=C(CCl)N1CCC(C(O)(c2ccccc2)c2ccccc2)CC1 [compound 20]
IC50 [1]: 2900 nM

SMILES: O=C(CCl)Nc1cccc2ncccc12 [compound 51]
isoTOP-ABPP ratio P46013_C903 [9]; 231: 1.1

SMILES: C=CC(=O)N(Cc1cccnc1)c1cc(C(F)(F)F)cc(C(F)(F)F)c1 [compound 31]
isoTOP-ABPP ratio, P16455_C145 [7]: 1.2

SMILES: O=C(CCl)NCCc1c[nH]c2ccccc12 [compound 13]
isoTOP-ABPP ratio, cysteine P10398_C597 ([5]; ramos): 1.0 | isoTOP-ABPP ratio, cysteine Q9BR61_C267 [10]; 231: 1.1

SMILES: COc1ccc(C2CC(c3cccs3)=NN2C(=O)CCl)cc1 (stereo not drawn) [compound 4]
isoTOP-ABPP reactivity profile (ratio) 4_100 μM_in-situ_231 ([2]; fragment 4 at 100 μM): 1.0

From US10670605B2, “Cysteine reactive probes and uses thereof” (The Scripps Research Institute, priority 2015, dated 2020)
